Experimental data published in patent publication US11426444B2, “Compositions, methods and uses for treating post-traumatic stress disorder” (priority 2017, dated 2022).
Ends that are not written are not given here.

Tests used:
Male, Swiss Webster mice = experiment: Naloxone-precipitated morphine withdrawal, CRH driven rodent model 2 (Example 6); format: in vivo, mouse
Method: A similar study was performed using a CRH antagonist (CP154, 526) in the precipitated withdrawal model.
Male, Swiss Webster mice were treated with seven (7) doses of Morphine 3.2 mg/kg i.p. (d1×5 and d2×2). Animals were then administered a test substance subcutaneously one hour after the last morphine injection with either: (i) nothing (morphine only); (ii) CRH antagonist (CP154, 526) or (iii) TCAP-1 and then an hour after the test substance the animals were administered naloxone i.p at 10 mg/kg, to induce withdrawal.
Two hours after last morphine treatment (i.e. after administration of Naloxone) the mice were immediately placed individually in an observation area and video recorded 20 minutes. The number of jumps (lifting of all feet off the ground) documented for 20 minutes.
(For description on CP154, 526 see for example, CNS Drug Reviews, Vol. 9, No. 1, pp 57-96, Seymour, Patricia A., et al, “The Pharmacology of CP-154,526, A Non-Peptide Antagonist of the CRH1 Receptor: A Review, incorporated herein by reference.)

C57Bl/6J mice [1] = experiment: Open field motor activity (OF) after CSD (Example 4); format: in vivo, mouse; settings: 15 min open field
Method: (§1) The mouse chronic social defeat (“CSD”) model has been accepted as a model of PTSD [Flandreau, et al, 2018]. This model involves exposure of C57Bl/6J mice to chronic stress by aggressor mice (male CD-1 ex-breeders) for a defined period of 15 days. Starting from day 15, mice were further tested in the open field (OF) model.
Behavioral tests such as Open field motor activity (OF) were also conducted. See the schematic of FIG. 7.
In this model set up the test was conducted 15 days after the last CSD session. The mouse was placed on the Open Field apparatus floor in the center of empty arena for 15 min without exposure to any other stimuli. The following parameters were calculated from the data: distance moved, number of vertical rearing's, velocity and % resting time (no movement activity). Open field activity chambers (Med Associates Inc, St Albans, Vt.; 27×27×20.3 cm) are equipped with IR beams with red light conditions. A mouse is considered to have no movement activity when the mouse is not breaking two adjacent beams consecutively (distance between two adjacent beams is about 1.7 cm).

Swiss Webster mice (SW) = experiment: Restraint stress model, corticosterone (Example 7, FIG. 14 A); format: in vivo, mouse; settings: restraint 30-60 minutes on successive days; dosed once at day 1 and day 2; effect in 5 days
Method: (§2) The inventors, extended the behavioural activity in a severe restraint model the changes in a stress related biomarker such as corticosterone is depicted in FIG. 14. (See for example de Pablos, R. N. et al (2014), Creating a Rat model of Chronic Variate Stress. Bio-protocol 4(23): e1315.DOI).
(§3) In this model animals, Swiss Webster mice (SW) (FIG. 14 A) and Sprague-Dawley rat (SD) (FIG. 14 B) were restrained in confined spaces for upwards of 30-60 minutes on successive days. TCAP-1 was administered once at day 1 and at day 2 in the 5-day model.

Sprague-Dawley rat (SD) = experiment: Restraint stress model, corticosterone (Example 7, FIG. 14 B); format: in vivo; settings: amidated human TCAP-1 (SEQ ID NO: 2); restraint 30-60 minutes on successive days; dosed at day 1 and day 2; effect within 3 days
From the text: Amidated mouse TCAP-1 (SEQ ID NO: 1) was suspended in 0.9% saline. [[…], Ambiopharm] for subcutaneous injection in the interscapular region and used in Examples 1, Amidated human TCAP-1 (SEQ ID NO: 2) was suspended in 0.9% saline. [10 nmol/Kg, Ambiopharm] was used in Example 7, for the SD-rat (FIG. 14 B).
as §2, §3

C57Bl/6J mice [2] = experiment: Chronic social defeat (CSD) model (Example 3); format: in vivo, mouse; settings: subcutaneous once a day days 1-7; for attack latency (time between retreat and evaluating the predator): FIG. 8
From the text: as §1
Experimental Set Up of Mice.
CD-1 mice were housed, one mouse per cage, during the experiments. C57Bl/6J mice were housed in pairs while not subjected to CSD. Mice are acclimated to the animal facility for minimum 5 days before the onset of the study.
CD-1 aggressor mice are determined by using the procedures by Golden et al. (2011). Screening involves three days of selection testing. After the screening and selection of 80 aggressor mice, the chronic social defeat (CSD) paradigm was conducted.
The CSD mouse group were subcutaneously injected once a day with vehicle or TCAP-1 days 1-7.
Under dim lighting a CSD mouse was subjected to direct exposure with a CD-1 aggressor mouse. […] The latency to the first attack was also recorded, and time needed to gain 60 s physical attack time. After the 10 min session, CSD mice were exposed to CD-1 mice through perforated transparent divider for 24 h. If the CD-1 mice are very aggressive (if wounding consistently exceeds veterinary guidelines), the exposure time can be shortened to 5 min or less.
This setup allows direct and continued olfactory, visual, auditory exposure for the rest of the day. On the following day, a CSD mouse is placed in a cage in similar fashion with 10 min direct exposure followed by chronic exposure through divider. Cycle is repeated for 15 days, replacing the […] with a new one every day until day 15. Thereafter, CSD mice remain caged next to the same CD-1 mice without any further attack sessions or rotations for days 16-17.
Attack latency is the period between retreat and confrontation. […] Aggressive contact time reflects the number of direct contacts. FIG. 9 illustrates that administration of TCAP-1, the animal will approach the predator and not retreat.

Swiss Webster mice = experiment: Naloxone-precipitated morphine withdrawal, CRH driven rodent model 1 (Example 5); format: in vivo, mouse
Method: In one model, Swiss Webster mice were stressed following chronic opiate administration.
In this Example, TCAP-1 was administered at the graded doses, daily for three days prior to administration of morphine. Morphine was then administered at 3.2 mg/kg i.p. on day 4 (5 times) and 5 (twice), and then one hour the last dose of morphine, naloxone is administered i.p at 10 mg/kg, to induce withdrawal.
One hour after last morphine treatment (i.e. after administration of Naloxone) the mice were immediately placed individually in an observation area and video recorded 20 minutes. The number of jumps (lifting of all feet off the ground) documented for 20 minutes

[3] = test system: Male adult Sprague-Dawley rats; experiment: Modified Open Field Test with noise pollution (Example 1); format: in vivo, rat
From the text: Male adult Sprague-Dawley rats (˜350 g) treated for 3 months (1 injection/week) with either vehicle (0.9% saline) or TCAP-1 (25 nmoles/kg) were used in Example 1.
Behaviour—Modified Open Field Test
The Open Field Test is a behavioral test paradigm used to investigate anxiety-related behaviours in rodents (Bailey K R and Crawley J N, 2009, in: Buccafusco J J, editor. Source Methods of Behavior Analysis in Neuroscience. 2nd edition. Boca Raton (Fla.): CRC Press/Taylor & Francis; 2009. Chapter 5.). In this experiment, the animals were exposed to high frequency noise pollution to induce a stress response while the animals were in the OFT apparatus. The test was performed one week post last injection of the long-term (3 month) treatment with either vehicle (0.9% saline) or TCAP-1 (25 nmoles/kg). Animals were individually placed in a plexiglass box (50 L×50 W) and digitally recorded and tracked for five (5) minutes. In the centre of the box is a designated section termed the centre zone. Behaviours are then analyzed from videos and recorded for time spent in centre zone, distance travelled in centre zone, and total distance travelled. Moreover, peering behaviour, grooming behaviour, and rearing behaviour were also analyzed (definitions below).
(a) Peering: Digital recordings were analyzed for Peering behaviour. Peering behaviour was defined as the specific notion where animals would stand on their back hind limbs in order to look over the side of the glass wall (i.e, The event where an animal rears specifically to peer over the side of the apparatus). This behaviour can be interpreted as an explorative or anti-fear response.
(b) Grooming: Digital recordings were analyzed for Grooming behaviour. Grooming behaviour was defined as the animals cleaning their face or bodies, i.e., the event where an animal grooms himself (usually his hands and face).
(c) Rearing: Digital recordings were analyzed for Rearing behaviour. Rearing behaviour was defined as an event where animals stand on their hind limbs (i.e., the event where an animal gets on his hind limbs in exploration). This behaviour is interpreted as an explorative behaviour, which is a low anxiety response.
Animals were digitally recorded and tracked for five (5) minutes in the Open Field Test with noise pollution. The noise pollution was large construction noise, intermittent and not at predictable intervals. […] As rearing behaviour is highly associated with anti-anxious behaviour, this corroborates the data indicating TCAP-1 is reducing stress-related behaviour.

[4] = 25 nmoles/kg, 1 injection/week for 3 months, 5 min, vs vehicle

Compound | symptomology of precipitated withdrawal (Male, Swiss Webster mice; small molecule CRH antagonist, 20 mg/Kg subcutaneously) | anxiety toward surroundings (C57Bl/6J mice [1]) | number of vertical rearings (C57Bl/6J mice [1]; FIG. 10) | rise in corticosterone (Swiss Webster mice (SW)) | rise in corticosterone (Sprague-Dawley rat (SD)) | number of jumps per 20 minutes after naloxone (Male, Swiss Webster mice; TCAP-1 250 nmole/Kg subcutaneously one hour after last morphine, versus CP154, 526 at 20 mg/Kg, FIG. 13) | attack latency (time between retreat and evaluating the predator) (C57Bl/6J mice [2]) | attack latency (time between retreat and evaluating the predator) (C57Bl/6J mice [2]; listed as TCAp-1) | aggressive contact time (number of direct contacts) (C57Bl/6J mice [2]; FIG. 9) | jumping activity (number of jumps per 20 minutes) following naloxone (Swiss Webster mice; graded doses daily for three days prior to morphine 3.2 mg/kg i.p., naloxone 10 mg/kg i.p., FIG. 12) | symptomology of precipitated withdrawal (Swiss Webster mice; mice stressed following chronic opiate administration) | time in the centre zone ([3]; 25 nmoles/kg, 1 injection/week for 3 months, tested one week post last injection, 5 min, vs vehicle) | entries into centre zone [3, 4] | grooming behaviour [3, 4] | peering behaviour [3, 4] | rearing behaviour [3, 4] | stress-related behaviour in the Open Field Test with noise pollution ([3]; chronic TCAP-1 administration)
CCCCN(CC)c1nc(C)nc2c1c(C)cn2-c1c(C)cc(C)cc1C [CP154, 526, reference compound] | limited success | – | – | – | – | – | – | – | – | – | – | – | – | – | – | – | –
Teneurin C-Terminal Associated Peptide-1 (QQLLGTGRVQGYDGYFVLSVEQYLELSDSANNIHFMRQSEI-NH2; not fully specified) [TCAP-1] | – | reduced anxiety toward their surroundings | reduced rearing events were observed | modulated the rise in corticosterone | modulated the rise in corticosterone | efficacy | attack latency increased | reduces the time between retreat and evaluating the predator | increased | dose dependent reduction in jumping activity | efficiently modulated | significantly more time in the centre zone | more entries into centre zone | not found to be significantly different between groups | not found to be significantly different between groups | significantly increased | significantly decreased stress-related behaviour
